Data reported in US20230096766A1, “AMINO ACID HAVING FUNCTIONAL GROUP CAPABLE OF INTERMOLECULAR HYDROGEN BONDING, PEPTIDE COMPOUND CONTAINING SAME AND METHOD FOR PRODUCTION THEREOF” (Chugai Seiyaku Kabushiki Kaisha, priority 2018, published 2023).
*1 amine or outer side, *2 acyl side, *3 side chain or, on linkers, in order; H or OH if unused. Where a SMILES comes first, the peptide text is derived from it. Bridges are numbered along the chain shown (N, C = ends). [ ]: non-standard residue; d: D form. The star is where a group is joined. ξ: configuration not given here. dhPhe(4-CONHMe,3-OMe) = CNC(=O)c1ccc(CC[C@@H](N)C(=O)O)cc1OC; Phe(3-CONHMe,4-OMe) = CNC(=O)c1cc(C[C@H](N)C(=O)O)ccc1OC; Phe(3-OMe,4-CONHMe) = CNC(=O)c1ccc(C[C@H](N)C(=O)O)cc1OC; NMeAbu(4-morpholino) = CN[C@@H](CCN1CCOCC1)C(=O)O; X1 = COc1cc(C[C@H](N[*:1])C(=O)[*:2])ccc1C(=O)NO; X11 = CNC(=O)c1ccc(CCN(CC(=O)[*:2])[*:1])cc1OC; NMePhe(3-Cl) = CN[C@@H](Cc1cccc(Cl)c1)C(=O)O; X12 = O=C([C@H](CCCC(O)C(F)(F)F)N[*:1])[*:2]; NMehPhe = CN[C@@H](CCc1ccccc1)C(=O)O; X6 = O=C([C@H](CCCCO)N[*:1])[*:2]; Hyp = O=C(O)[C@@H]1C[C@@H](O)CN1; NMeF = CN[C@@H](Cc1ccccc1)C(=O)O; NMeI = CC[C@H](C)[C@H](NC)C(=O)O; Butyl(3-Me,3-OH) = CC(C)(O)CC*; NMeD = CN[C@@H](CC(=O)O)C(=O)O; NMeL = CN[C@@H](CC(C)C)C(=O)O; Thr(3ξ) = CC(O)[C@H](N)C(=O)O; Butyl(3S-OH) = C[C@H](O)CC*; NMeV = CN[C@H](C(=O)O)C(C)C; NMeAbu = CC[C@H](NC)C(=O)O; NMeA = CN[C@@H](C)C(=O)O; Piperidide = C1CCN(*)CC1; NBuGly = CCCCNCC(=O)O; Isopentyl = CC(C)CC*; NPrGly = CCCNCC(=O)O; Ethyl(2-OH) = OCC*; X3 = C[C@H](O)C*; Sar = CNCC(=O)O; tBu = CC(C)(C)*

Test: in vitro
Conditions: human, Caco-2, Caco-2

Structure (SMILES) | Papp [×10⁻⁶ cm/s]
CCCCN1CC(=O)N(C)[C@@H](CC(C)C)C(=O)N[C@@H](COC(C)(C)C)C(=O)N(C)[C@@H](Cc2ccccc2)C(=O)N(C)[C@@H](C(C)C)C(=O)N[C@H](C(=O)N2CCCCC2)CC(=O)N[C@H](CC(C)C)C(=O)N(C)[C@@H](Cc2ccccc2)C(=O)N[C@@H](CC(C)C)C(=O)N(C)[C@@H](CCN2CCOCC2)C(=O)N[C@@H]([C@@H](C)O)C1=O [pd452] ([dL][NMeF]L[NMeAbu(4-morpholino)]T[NBuGly][NMeL]S(tBu)[NMeF][NMeV]D-Piperidide; lactam N-11) | 1.3

Same assay, conditions: human, Caco-2, Caco-2 (cm/sec)

Structure (SMILES) | Papp [×10⁻⁶ cm/s]
CNC(=O)c1ccc(C[C@@H]2NC(=O)[C@H](CC(C)C)N(C)C(=O)[C@H](CC(C)C)N(C)C(=O)[C@H](CC(C)C)NC(=O)[C@H](CC(C)C)N(C)C(=O)C[C@@H](C(=O)N3CCCCC3)NC(=O)[C@H](CC(C)C)N(C)C(=O)CN(C)C(=O)[C@H](C(C)O)NC(=O)[C@H](C(C)C)N(C)C(=O)[C@H](CC(C)C)N(C)C2=O)cc1OC (stereo partly drawn) [AP32] ([NMeL]L[NMeL][NMeL][Phe(3-OMe,4-CONHMe)][NMeL][NMeV][Thr(3ξ)][Sar][NMeL]D-Piperidide; lactam N-11) | 1.3
CC(C)C[C@@H]1NC(=O)[C@H](Cc2ccccc2)N(C)C(=O)[C@@H](C(C)C)NC(=O)C[C@@H](C(=O)N2CCCCC2)NC(=O)[C@H](CC(C)C)N(C)C(=O)[C@H](Cc2cccc(Cl)c2)N(C)C(=O)[C@H](COCC[C@H](C)O)NC(=O)[C@H](CC(C)C)N(C)C(=O)CN(C)C(=O)[C@H]([C@@H](C)O)NC(=O)[C@H](CC(C)C)N(C)C1=O [AP100] ([dV][NMeF]L[NMeL]T[Sar][NMeL]S(Butyl(3S-OH))[NMePhe(3-Cl)][NMeL]D-Piperidide; lactam N-11) | 0.55
CCCN1CC(=O)N(C)[C@@H](CC(C)C)C(=O)N[C@@H](COCCC(C)C)C(=O)N(C)[C@@H](Cc2ccccc2)C(=O)N(C)[C@@H](CC(C)C)C(=O)N[C@H](C(=O)N2CCCCC2)CC(=O)N[C@H](C(C)C)C(=O)N(C)[C@@H](Cc2ccccc2)C(=O)N[C@@H](COC[C@H](C)O)C(=O)N(C)[C@@H](CC(C)C)C(=O)N[C@@H]([C@@H](C)O)C1=O [AP61] ([dV][NMeF]S(X3)[NMeL]T[NPrGly][NMeL]S(Isopentyl)[NMeF][NMeL]D-Piperidide; lactam N-11) | 0.51
CC[C@H](C)[C@@H]1NC(=O)[C@H](CC(C)C)N(C)C(=O)[C@@H](C)NC(=O)C[C@@H](C(=O)N2CCCCC2)NC(=O)[C@H](C(C)C)N(C)C(=O)[C@H](Cc2ccccc2)N(C)C(=O)[C@H](COC(C)(C)C)NC(=O)[C@H](CC(C)C)N(C)C(=O)CN(C)C(=O)[C@H](Cc2ccc(O)cc2)NC(=O)[C@H](C)N(C)C1=O [pd117] ([dA][NMeL]I[NMeA]Y[Sar][NMeL]S(tBu)[NMeF][NMeV]D-Piperidide; lactam N-11) | 0.56
CCCCN1CC(=O)N(C)[C@@H](Cc2ccccc2)C(=O)N(C)[C@@H](CC(C)C)C(=O)N[C@@H](CC(C)C)C(=O)N(C)[C@@H](CC(C)C)C(=O)N[C@H](C(=O)N2CCCCC2)CC(=O)N(C)CC(=O)N(C)[C@@H](CC(C)C)C(=O)N[C@H](CCc2ccc(C(=O)NC)c(OC)c2)C(=O)N(C)[C@@H](CC)C(=O)N[C@@H]([C@@H](C)O)C1=O [AP214] ([Sar][NMeL][dhPhe(4-CONHMe,3-OMe)][NMeAbu]T[NBuGly][NMeF][NMeL]L[NMeL]D-Piperidide; lactam N-11) | 0.84
CC[C@H]1C(=O)N[C@@H](CC(C)C)C(=O)N(C)[C@@H](CC(C)C)C(=O)N(C)[C@@H](Cc2ccccc2)C(=O)N[C@@H](CC(C)C)C(=O)N(C)[C@@H](CC(C)C)C(=O)N(CCc2ccc(C(=O)NC)c(OC)c2)CC(=O)N[C@@H]([C@@H](C)O)C(=O)N(C)CC(=O)N(C)[C@@H](CC(C)C)C(=O)N[C@H](C(=O)N2CCCCC2)CC(=O)N1C [AP223] ([NMeAbu]L[NMeL][NMeF]L[NMeL][X11]T[Sar][NMeL]D-Piperidide; lactam N-11) | 1.6
CC[C@H](C)[C@@H]1NC(=O)[C@H](CC(C)C)N(C)C(=O)CN(C)C(=O)C[C@@H](C(=O)N2CCCCC2)NC(=O)[C@H](CC(C)C)N(C)C(=O)[C@H](Cc2ccc(OC)c(C(=O)NC)c2)NC(=O)[C@H](CC(C)C)N(C)C(=O)[C@H](Cc2cccc(Cl)c2)N(C)C(=O)CN(C)C(=O)[C@H]([C@@H](C)O)NC(=O)[C@H](CC(C)C)N(C)C1=O [AP42] ([Sar][NMeL]I[NMeL]T[Sar][NMePhe(3-Cl)][NMeL][Phe(3-CONHMe,4-OMe)][NMeL]D-Piperidide; lactam N-11) | 0.25
CC(C)C[C@@H]1NC(=O)[C@H](CCc2ccccc2)N(C)C(=O)[C@@H](C(C)C)NC(=O)C[C@@H](C(=O)N2CCCCC2)NC(=O)[C@H](CC(C)C)N(C)C(=O)[C@H](Cc2ccccc2)N(C)C(=O)[C@H](COCCC(C)(C)O)NC(=O)[C@H](CC(C)C)N(C)C(=O)CN(C)C(=O)[C@H]([C@@H](C)O)NC(=O)[C@H](CC(C)C)N(C)C1=O [AP60] ([dV][NMehPhe]L[NMeL]T[Sar][NMeL]S(Butyl(3-Me,3-OH))[NMeF][NMeL]D-Piperidide; lactam N-11) | 1
CC(C)C[C@@H]1NC(=O)[C@H](CC(C)C)N(C)C(=O)[C@H](CC(C)C)N(C)C(=O)[C@H](COC(C)(C)C)NC(=O)[C@H](CC(C)C)N(C)C(=O)[C@@H](C(C)C)NC(=O)C[C@@H](C(=O)N2CCCCC2)NC(=O)[C@H](CC(C)C)N(C)C(=O)[C@H](Cc2ccccc2)NC(=O)[C@@H]2C[C@@H](OCCO)CN2C(=O)[C@H]([C@@H](C)O)NC1=O [AP237] ([dV][NMeL]S(tBu)[NMeL][NMeL]LT[Hyp](Ethyl(2-OH))F[NMeL]D-Piperidide; lactam N-11) | 1.3
CC(C)C[C@@H]1NC(=O)[C@H](CCc2ccccc2)N(C)C(=O)[C@@H](C(C)C)NC(=O)C[C@@H](C(=O)N2CCCCC2)NC(=O)[C@H](CC(C)C)N(C)C(=O)[C@H](Cc2cccc(Cl)c2)N(C)C(=O)[C@H](COCCO)NC(=O)[C@H](CC(C)C)N(C)C(=O)CN(C)C(=O)[C@H]([C@@H](C)O)NC(=O)[C@H](CC(C)C)N(C)C1=O [Compound A02] ([dV][NMehPhe]L[NMeL]T[Sar][NMeL]S(Ethyl(2-OH))[NMePhe(3-Cl)][NMeL]D-Piperidide; lactam N-11) | 0.45
CC(C)C[C@H]1C(=O)N[C@@H](COC(C)(C)C)C(=O)N(C)[C@@H](Cc2ccccc2)C(=O)N(C)[C@@H](C(C)C)C(=O)N[C@H](C(=O)N2CCCCC2)CC(=O)N[C@H](C(C)C)C(=O)N(C)[C@@H](C)C(=O)N[C@@H](C(C)C)C(=O)N(C)[C@@H](CC(C)C)C(=O)N[C@@H](Cc2ccc(O)cc2)C(=O)N(C)CC(=O)N1C [pd121] ([dV][NMeA]V[NMeL]Y[Sar][NMeL]S(tBu)[NMeF][NMeV]D-Piperidide; lactam N-11) | 1
CC(C)C[C@@H]1NC(=O)[C@H](Cc2ccccc2)N(C)C(=O)[C@H](COC(C)(C)C)NC(=O)[C@H](Cc2ccccc2)N(C)C(=O)[C@H](C)N(C)C(=O)[C@H](CC(C)C)N(C)C(=O)[C@H](C)N(C)C(=O)C[C@@H](C(=O)N2CCCCC2)N(C)C(=O)[C@H](Cc2ccccc2)N(C)C(=O)[C@H]([C@@H](C)O)NC(=O)[C@H](C(C)C)N(C)C1=O [pd213] ([NMeA][NMeL][NMeA][NMeF]S(tBu)[NMeF]L[NMeV]T[NMeF][NMeD]-Piperidide; lactam N-11) | 1.3
CCCCN1CC(=O)N(C)[C@@H](CC(C)C)C(=O)N(C)[C@@H](CC(C)C)C(=O)N[C@@H](COC(C)(C)C)C(=O)N(C)[C@@H](CC(C)C)C(=O)N[C@H](C(=O)N2CCCCC2)CC(=O)N(C)CC(=O)N(C)[C@@H](Cc2cccc(Cl)c2)C(=O)N[C@@H](Cc2ccc(C(=O)NO)c(OC)c2)C(=O)N(C)[C@@H](CC(C)C)C(=O)N[C@@H]([C@@H](C)O)C1=O [AP260] ([Sar][NMePhe(3-Cl)][X1][NMeL]T[NBuGly][NMeL][NMeL]S(tBu)[NMeL]D-Piperidide; lactam N-11) | 0.04
CC[C@H]1C(=O)N[C@@H](CC(C)C)C(=O)N(C)[C@@H](CC(C)C)C(=O)N(C)[C@@H](Cc2ccccc2)C(=O)N[C@@H](CCCCO)C(=O)N(C)[C@@H](CCc2ccccc2)C(=O)N(C)[C@@H](CC(C)C)C(=O)N[C@@H]([C@@H](C)O)C(=O)N(C)CC(=O)N(C)[C@@H](CC(C)C)C(=O)N[C@H](C(=O)N2CCCCC2)CC(=O)N1C [Compound B06] ([NMeAbu]L[NMeL][NMeF][X6][NMehPhe][NMeL]T[Sar][NMeL]D-Piperidide; lactam N-11) | 0.39

Same assay, conditions: human, Caco-2, Caco-2 (cm/sec) Papp

Structure (SMILES) | Papp [×10⁻⁶ cm/s]
CC(C)C[C@H]1C(=O)N[C@@H](COC(C)(C)C)C(=O)N[C@@H]([C@@H](C)O)C(=O)N(C)[C@@H](Cc2ccccc2)C(=O)N[C@H](C(=O)N2CCCCC2)CC(=O)N[C@@H](C)C(=O)N(C)[C@@H](Cc2ccccc2)C(=O)N(C)[C@@H](C)C(=O)N(C)[C@@H](Cc2ccccc2)C(=O)N(C)[C@@H](CC(C)C)C(=O)N[C@@H](Cc2ccccc2)C(=O)N1C [pd237] (A[NMeF][NMeA][NMeF][NMeL]F[NMeL]S(tBu)T[NMeF]D-Piperidide; lactam N-11) | 0.089
CC[C@H](C)[C@@H]1NC(=O)[C@H](Cc2ccccc2)N(C)C(=O)[C@H]([C@@H](C)O)NC(=O)[C@@H](C)NC(=O)C[C@@H](C(=O)N(C)[C@@H](Cc2ccccc2)C(=O)N(C)[C@@H](Cc2ccccc2)C(=O)N[C@@H](C)C(=O)N2CCCCC2)NC(=O)[C@H](CC(C)C)N(C)C(=O)[C@H](CC(C)C)N(C)C(=O)[C@H](Cc2ccccc2)N(C)C(=O)[C@H](CC(C)C)N(C)C(=O)[C@H](C)N(C)C1=O [pd242] ([dA]T[NMeF]I[NMeA][NMeL][NMeF][NMeL][NMeL]D[NMeF][NMeF]A-Piperidide; lactam N-10) | 0.058

Same assay, conditions: human, Caco-2, Caco-2 (membrane permeability)

Structure (SMILES) | Papp [×10⁻⁶ cm/s]
CCCCN1CC(=O)N(C)[C@@H](CC(C)C)C(=O)N[C@H](C(=O)N2CCCCC2)CC(=O)N(C)[C@@H](C)C(=O)N[C@@H](CCCC(O)C(F)(F)F)C(=O)N(C)[C@@H](CC(C)C)C(=O)N(C)[C@@H](Cc2ccccc2)C(=O)N[C@@H](CC(C)C)C(=O)N(C)[C@@H](Cc2ccccc2)C(=O)N(C)[C@@H]([C@@H](C)CC)C(=O)N[C@@H]([C@@H](C)O)C1=O (stereo partly drawn) [Compound D04] ([NMeA][X12][NMeL][NMeF]L[NMeF][NMeI]T[NBuGly][NMeL]D-Piperidide; lactam N-11) | 0.2
